The values below come from ChEMBL document CHEMBL1124176, “1-Methyl-4-phenyl-1,2,3,6-tetrahydropyridine analogues. Inactivation of monoamine oxidase by conformationally rigid analogues of N,N-dimethylcinnamylamine” (J Med Chem, 1988).

A short description of series [1]: Cytotoxicity measured as % loss of cells after 120 min. Conditions: rat, 2 h. It counts as cell-based.
A short description of series [2]: Cytotoxicity measured as % loss of cells after 60 min. It counts as cell-based. Conditions: rat, 1 h.
The nature of series [3]: Cytotoxicity measured as % loss of cells after 90 min. Format: cell-based. The following applies: rat.
Series [4] deals with Amine oxidase [flavin-containing] B (Bos taurus) (UniProt P56560).
Series [5] shares this target. The series can be described thus: Inactivation of monoamine oxidase measured as kinetic constant, KI at 0.8-4 conc range.
For series [6] the target is unchanged. The series can be described thus: Inactivation of monoamine oxidase measured as kinetic constant, Kinact at 0.8-4 conc range.

Amine oxidase [flavin-containing] B (Bos taurus), sequence (P56560 whole entry, looked up): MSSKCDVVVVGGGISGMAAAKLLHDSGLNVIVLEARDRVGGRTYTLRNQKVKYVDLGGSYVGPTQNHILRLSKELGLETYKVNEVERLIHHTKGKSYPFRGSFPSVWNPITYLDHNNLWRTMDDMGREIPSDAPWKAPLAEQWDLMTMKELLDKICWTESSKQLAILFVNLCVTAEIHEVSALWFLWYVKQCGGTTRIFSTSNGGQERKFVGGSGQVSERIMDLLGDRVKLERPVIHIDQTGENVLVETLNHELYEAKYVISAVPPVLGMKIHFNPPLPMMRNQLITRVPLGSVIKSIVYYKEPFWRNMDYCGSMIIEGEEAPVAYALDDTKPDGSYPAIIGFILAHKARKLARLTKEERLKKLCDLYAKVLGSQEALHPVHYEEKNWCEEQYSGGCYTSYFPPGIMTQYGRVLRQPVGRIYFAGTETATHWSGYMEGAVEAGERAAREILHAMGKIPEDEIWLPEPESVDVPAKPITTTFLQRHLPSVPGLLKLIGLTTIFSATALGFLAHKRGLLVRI

In the case of `CN1CC=C(c2ccccc2)CC1`, the Loss of cells in series [1] worked out at 81%; in series [2], 12%; in series [3], 58%.
On to `C/C=C(\C)c1ccccc1`, for which the Ki in series [4] came to 1900 µM.
With `C#CCN(C)Cc1ccccc1.CN(C)C1C=C(c2ccccc2)CCC1` (stereo not given), in series [2], the Loss of cells was 100%.
Regarding `C#CCN(C)Cc1ccccc1.CN1CC=C(c2ccccc2)CC1`, the Loss of cells was 5% in series [1], 6% in series [2] and 11% in series [3].
`NC1C=C(c2ccccc2)CCC1` (stereo not given): the Loss of cells worked out at 60% in series [1], 28% in series [2] and 35% in series [3]. Moreover, in series [4], the Ki was 510 µM.
Turning to `CN(C)C1C=C(c2ccccc2)CCC1` (stereo not given), in series [2], the Loss of cells stood at 100%. Also, in series [4], the Ki was determined as 1040 µM.
Take `C#CCN(C)Cc1ccccc1.NC1C=C(c2ccccc2)CCC1` (stereo not given): the Loss of cells in series [1] was found to be 69%; in series [2] it was 24%; in series [3], 51%.
`CN(C)C/C=C/c1ccccc1`: the figures for the Ki in series [4] and in series [5] were 1350 µM and 1330 µM, respectively. In addition, the kinact in series [6] was 0.00356 s⁻¹.
